Experimental findings from patent US5552421A, “Leukotriene biosynthesis inhibitors” (Boehringer Ingelheim Pharmaceuticals, Inc., priority 1995, dated 1996) are described below.

This experiment concerns LTB4 biosynthesis in human polymorphonuclear leukocytes (PMNs). Description: Inhibition of LTB4 biosynthesis in human polymorphonuclear leukocytes (PMNs). It is filed as cell-based. The protocol:
Inhibition of LTB4, biosynthesis in human polymorphonuclear leukocytes (PMNs)
The inhibition of leukotriene biosynthesis is measured by determining whether and to what extent test compounds can inhibit LTB4 production from endogenous arachidonic acid in human peripheral blood leukocytes.
To 48-well tissue culture plates was added a solution of the test compound followed by addition of human polymorphonuclear leukocytes isolated from peripheral blood at a density of 1.5×10^6 cells/well. Culture plates were preincubated for fifteen minutes with shaking at 28° C. Cells were stimulated with calcium ionophore A23187 at a final concentration of 2.5 μM for an additional ten minutes. The reaction was terminated by the addition of an EGTA solution (10 mM final concentration)followed by centrifugation at 1500 rpm at 10° C. Supernatants were stored at -70° C. LTB4 levels were determined by RIA using a commercially available kit. Nonlinear regression analysis was used to calculate. IC50 values.
The following tables show % inhibition of LTB4 biosynthesis by compounds of the invention at test concentrations indicated, with the determined IC50 shown in μM.

The mark [1] stands for this setting: Homo sapiens, Leukocyte, Table 10, Oxazolopyridines, values with <: see footnote d, Table 1.
Setting [2] is: Homo sapiens, Leukocyte, Table 8, Miscellaneous Acyclic, values with <: see footnote d, Table 1.
The mark [3] stands for this setting: Homo sapiens, Leukocyte, Table 3, Phenyl, values with <: see footnote d, Table 1.
[4] abbreviates: Homo sapiens, Leukocyte, Table 4, Pyridyl, values with <: see footnote d, Table 1.
Setting [5] is: Table 4, Pyridyl, values with <: see footnote d, Table 1.
Setting [6] is: Leukocyte, Table 1, Esters, LTB4, A23187-stimulated human PMNs, values with < (footnote d): greater than 50% (504 [sic]) inhibition at this concentration, IC50 not characterized further.
[7] abbreviates: Homo sapiens, Leukocyte, Table 11, Thiazolopyridines, values with <: see footnote d, Table 1.

A value given as a limit tells only on which side of the number the result lay.

As to `Cc1ccc2oc(NC(CC3CCCCC3)c3ccccc3)nc2n1` (stereo not drawn) [Compound 164], the IC50 under setting [1] was found to be 28 nM. That is a double-digit nanomolar value.

On to `CSCC(Cc1csc(C)n1)Nc1nc2cc(C(C)C)ccc2o1` (stereo not drawn) [Compound 145], for which the IC50 under setting [2] was < 100 nM.

With `CC(C)c1ccc2oc(NC(CC3CCCCC3)c3ccccc3)nc2c1` (stereo not drawn) [Compound 54], under setting [3], half-maximal inhibition (IC50) required 6.3 nM. In other words, the single-digit nanomolar range.

Consider `Cc1nc(CC(Nc2nc3cc(Cl)ccc3o2)c2ccccn2)cs1` (stereo not drawn) [Compound 117], for which the IC50 under setting [4] is < 100 nM.

Regarding `Clc1ccc2sc(NC(CC3CCCCC3)c3ccccn3)nc2c1` (stereo not drawn) [Compound 97], it took 4 nM to reach half-maximal inhibition under setting [4] (IC50).

Under setting [5], `Cc1ccc2oc(NC(CC3CCCCC3)c3cccnc3)nc2c1` (single isomer, unassigned) [Compound 89] yielded an IC50 of 16 nM.

On to `COCC(Cc1csc(C)n1)Nc1nc2cc(C(C)C)ccc2o1` (stereo not drawn) [Compound 141], for which, under setting [2], the IC50 is < 300 nM.

On to `CCOC(=O)C(C)(Cc1ccccc1)Nc1nc2ccccc2s1` (stereo not drawn) [Compound 38], for which half-maximal inhibition (Homo sapiens, Leukocyte, Table 1A, Esters, LTB4, A23187-stimulated human PMNs) (IC50) required 200 nM.

As to `O=[N+]([O-])c1ccc(CC(Nc2nc3cc(Cl)ccc3o2)c2ccccn2)cc1` (stereo not drawn) [Compound 104], the IC50 under setting [4] is < 30 nM.

Consider `CCOC(=O)C(Cc1csc(C)n1)Nc1nc2cc(C(C)C)ccc2o1` (stereo not drawn) [Compound 33], for which, under setting [6], the IC50 was < 30 nM.

`CCOC(=O)C(Cc1nccs1)Nc1nc2cc(Cl)ccc2o1` (stereo not drawn) [Compound 28]: the IC50 under setting [6] is < 300 nM.

For the compound `c1cncc(C(CC2CCCCC2)Nc2nc3ccccc3o2)c1` (stereo not drawn) [Compound 80], the IC50 under setting [4] came to 55 nM.

With `Cc1cnc2nc(NC(CC3CCCCC3)c3ccccc3)sc2c1` (stereo not drawn) [Compound 191], the IC50 under setting [7] was < 1000 nM.

`Clc1ccc2sc(NC(CC3CCCCC3)c3ccccn3)nc2c1` (stereo not drawn) [Compound 102] had an IC50 under setting [5] of 4 nM.

`Fc1ccc(CC(Nc2nc3ccc(C(F)(F)F)cc3s2)c2ccccn2)cc1` (stereo not drawn) [Compound 106]: the IC50 under setting [4] was < 1000 nM.

The compound `CC(C)c1ccc2oc(NC(Cc3cccc(Cl)c3)c3ccccn3)nc2c1` (stereo not drawn) [Compound 100] had an IC50 under setting [4] of 5 nM. This lies in the single-digit nanomolar range.

The compound `NC(=O)[C@H](Cc1ccccc1)Nc1nc2ccccc2s1` [Compound 40] showed an IC50 (Homo sapiens, Leukocyte, Table 2, Amides, values with <: see footnote d, Tables 1 and 1A) of 3000 nM. That is a single-digit micromolar value.

For `CCOC(=O)C(Cc1cccnc1)Nc1nc2cc(C(C)C)ccc2o1` (stereo not drawn) [Compound 30], the IC50 under setting [6] turned out to be 190 nM. This counts as sub-micromolar.

Take `O=C(O)c1ccc2oc(NC(CC3CCCCC3)c3ccccc3)nc2c1` (stereo not drawn) [Compound 63]: under setting [3], the midpoint of inhibition, the IC50, lay at 190 nM.

As to `CCCOCC(Cc1ccc(F)cc1)Nc1nc2cc(C(C)C)ccc2o1` (stereo not drawn) [Compound 138], under setting [2], the IC50 was < 300 nM.

Regarding `Cc1cnc2nc(NC(Cc3ccc(F)cc3)c3ccccn3)sc2c1` (stereo not drawn) [Compound 192], the IC50 under setting [7] is < 300 nM.

The compound `COC(=O)c1ccc2oc(NC(Cc3ccc(F)cc3)c3ccccn3)nc2c1` (stereo not drawn) [Compound 101] returned an IC50 under setting [4] of 27 nM.

Compound `Clc1ccccc1C(CC1CCCCC1)Nc1nc2ccccc2o1` (stereo not drawn) [Compound 58] came in with an IC50 under setting [3] of 80 nM.

`Cc1noc(C(Cc2ccc(F)cc2)Nc2nc3cc(C(C)C)ccc3o2)n1` (stereo not drawn) [Compound 126]: the half-inhibitory concentration (IC50) (Homo sapiens, Leukocyte, Table 6, Methyloxadiazole, values with <: see footnote d, Table 1) is < 300 nM.

With `COC(=O)[C@H](CC1CCCCC1)Nc1nc2ncccc2o1` [Compound 162], the IC50 under setting [1] was found to be 210 nM.

`Fc1ccc(CC(Nc2nc3cc(C(F)(F)F)ccc3o2)c2ccccn2)cc1` (stereo not drawn) [Compound 107]: it took 8 nM to reach half-maximal inhibition under setting [4] (IC50).

With `CCOC(=O)[C@H](Cc1ccccc1)Nc1nc2ccc(C(C)C)cc2s1` [Compound 6], half-maximal inhibition under setting [6] (IC50) was put at 250 nM. In other words, the sub-micromolar range.

With `Clc1ccc(C(CC2CCCCC2)Nc2nc3ccccc3o2)cc1` (stereo not drawn) [Compound 55], half-maximal inhibition under setting [3] (IC50) was put at 300 nM. This counts as sub-micromolar.

With `Fc1cc2nc(NC(CC3CCCCC3)c3ccccn3)oc2cc1F` (stereo not drawn) [Compound 112], the IC50 under setting [4] came to 1 nM.

Under setting [6], `CCOC(=O)[C@H](Cc1ccccc1)Nc1nc2ccc(CC)cc2s1` [Compound 12] gave an IC50 of 240 nM. That is a sub-micromolar value.

The compound `c1ccc(C(CC2CCCCC2)Nc2nc3ncccc3o2)cc1` (stereo not drawn) [Compound 163] yielded an IC50 under setting [1] of 78 nM.

`CC(=O)[C@H](Cc1ccccc1)Nc1nc2ccc(C(C)C)cc2s1` [Compound 128, 3-[(6-Isopropylbenzothiazol-2-yl)amino]-4-phenylbutan-2-one]: the IC50 (Homo sapiens, Leukocyte, Table 7, Ketones) was 350 nM.

Turning to `CCOC(=O)C(Cc1ccc(Cl)cc1)Nc1nc2ccccc2s1` (stereo not drawn) [Compound 1], half-maximal inhibition under setting [6] (IC50) required 200 nM.
